Test results published in patent US10968172B2, “USP30 inhibitors” (Mitobridge, Inc., priority 2017, dated 2021).

Biological target: USP30 (Homo sapiens (Human), UniProt Q70CQ3)
Test: In vitro biochemical assay for USP30 enzyme (Ubiquitin-Rhodamine110 cleavage, fluorescence)
Settings: 20 nM USP30, 15 min pre-incubation, 100 nM Ub rhodamine substrate, 2 hrs at room temperature

Sequence of USP30 (Q70CQ3 whole entry): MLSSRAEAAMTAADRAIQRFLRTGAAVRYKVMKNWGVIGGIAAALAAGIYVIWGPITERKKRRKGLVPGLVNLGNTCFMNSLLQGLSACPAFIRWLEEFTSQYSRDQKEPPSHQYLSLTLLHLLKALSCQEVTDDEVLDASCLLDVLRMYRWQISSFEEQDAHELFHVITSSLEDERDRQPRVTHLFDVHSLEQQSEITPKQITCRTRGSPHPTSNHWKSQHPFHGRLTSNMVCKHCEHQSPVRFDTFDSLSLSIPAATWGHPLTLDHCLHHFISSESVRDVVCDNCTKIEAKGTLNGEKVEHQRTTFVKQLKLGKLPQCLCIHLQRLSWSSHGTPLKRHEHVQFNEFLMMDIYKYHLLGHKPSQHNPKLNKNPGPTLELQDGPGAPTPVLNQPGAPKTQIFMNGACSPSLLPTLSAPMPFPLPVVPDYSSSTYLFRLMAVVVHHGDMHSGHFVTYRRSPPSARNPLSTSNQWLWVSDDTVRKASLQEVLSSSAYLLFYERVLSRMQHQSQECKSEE

IC50 | Compound
200 nM | CC(C)(C)NS(=O)(=O)c1ccc(NC(=O)[C@H](Cc2cccs2)NC(=O)c2ccccn2)cc1 [Compound 19s, (S)-N-(1-((4-(N-(tert-butyl)sulfamoyl)phenyl)amino)-1-oxo-3-(thiophen-2-yl)propan-2-yl)picolinamide]
1040 nM | COc1ccc(C(=O)N[C@@H](Cc2cccs2)C(=O)Nc2ccc(S(=O)(=O)NC(C)(C)C)cc2)nc1 [Compound 19t, (S)-N-(1-((4-(N-(tert-butyl)sulfamoyl)phenyl)amino)-1-oxo-3-(thiophen-2-yl)propan-2-yl)-5-methoxypicolinamide]
195 nM | COc1ccc(C[C@H](NC(=O)c2ccccn2)C(=O)Nc2ccc(S(=O)(=O)NC(C)(C)C)cc2)cc1 [Compound 19u, (S)-N-(1-((4-(N-(tert-butyl)sulfamoyl)phenyl)amino)-3-(4-methoxyphenyl)-1-oxopropan-2-yl)picolinamide]
> 10000 nM | COc1ccc(C[C@H](NC(=O)c2cscn2)C(=O)Nc2ccc(S(=O)(=O)NC(C)(C)C)cc2)cc1 [Compound 19x, (S)-N-(1-((4-(N-(tert-butyl)sulfamoyl)phenyl)amino)-3-(4-methoxyphenyl)-1-oxopropan-2-yl)thiazole-4-carboxamide]
> 10000 nM | COc1ccc(C[C@H](NC(=O)c2cocn2)C(=O)Nc2ccc(S(=O)(=O)NC(C)(C)C)cc2)cc1 [Compound 19z, (S)-N-(1-((4-(N-(tert-butyl)sulfamoyl)phenyl)amino)-3-(4-methoxyphenyl)-1-oxopropan-2-yl)oxazole-4-carboxamide]

The remaining lines, values behind:

Compound | IC50
CC(C)(C)NS(=O)(=O)c1ccc(NC(=O)[C@H](Cc2ccc(F)cc2)NC(=O)c2ccc(F)cc2)cc1 [Compound 19k, (S)-N-(1-((4-(N-(tert-butyl)sulfamoyl)phenyl)amino)-3-(4-fluorophenyl)-1-oxopropan-2-yl)-4-fluorobenzamide] | 26 nM
CC(C)(C)NS(=O)(=O)c1ccc(NC(=O)[C@H](Cc2ccc(-c3ccccc3)cc2)NC(=O)c2ccc(F)cc2)cc1 [Compound 19l, (S)-N-(3-([1,1′-biphenyl]-4-yl)-1-((4-(N-(tert-butyl)sulfamoyl)phenyl)amino)-1-oxopropan-2-yl)-4-fluorobenzamide] | 169 nM
CC(C)(C)NS(=O)(=O)c1ccc(NC(=O)[C@H](Cc2ccccc2)NC(=O)C2CCCCC2)cc1F [Compound 19m, (S)-N-(1-((4-(N-(tert-butyl)sulfamoyl)-3-fluorophenyl)amino)-1-oxo-3-phenylpropan-2-yl)cyclohexanecarboxamide] | 275 nM
CC(C)(C)NS(=O)(=O)c1ccc(NC(=O)[C@H](Cc2cccnc2)NC(=O)c2ccc(F)cc2)cc1 [Compound 19n, (S)-N-(1-((4-(N-(tert-butyl)sulfamoyl)phenyl)amino)-1-oxo-3-(pyridin-3-yl)propan-2-yl)-4-fluorobenzamide] | 16 nM
CC(C)(C)NS(=O)(=O)c1ccc(NC(=O)[C@H](Cc2ccccn2)NC(=O)c2ccc(F)cc2)cc1 [Compound 19o, (S)-N-(1-((4-(N-(tert-butyl)sulfamoyl)phenyl)amino)-1-oxo-3-(pyridin-2-yl)propan-2-yl)-4-fluorobenzamide] | 48 nM
CC(C)(C)NS(=O)(=O)c1cccc2c(NC(=O)[C@H](CC3CCCCC3)NC(=O)C3CCCCC3)cccc12 [Compound 19p, (S)-N-(1-((5-(N-(tert-butyl)sulfamoyl)naphthalen-1-yl)amino)-3-cyclohexyl-1-oxopropan-2-yl)cyclohexanecarboxamide] | 195 nM
CC(C)(C)NS(=O)(=O)c1cccc2c(NC(=O)[C@H](Cc3ccccc3)NC(=O)/C=C/c3ccccc3)cccc12 [Compound 19q, (S)-N-(1-((5-(N-(tert-butyl)sulfamoyl)naphthalen-1-yl)amino)-1-oxo-3-phenylpropan-2-yl)cinnamamide] | > 10000 nM
COc1ccc(C[C@H](NC(=O)c2cncs2)C(=O)Nc2ccc(S(=O)(=O)NC(C)(C)C)cc2)cc1 [Compound 19w, (S)-N-(1-((4-(N-(tert-butyl)sulfamoyl)phenyl)amino)-3-(4-methoxyphenyl)-1-oxopropan-2-yl)thiazole-5-carboxamide] | > 10000 nM
CC(C)(C)NS(=O)(=O)c1ccc(NC(=O)[C@H](Cc2ccncc2)NC(=O)c2ccc(F)cc2)cc1 [Compound 19y, (S)-N-(1-((4-(N-(tert-butyl)sulfamoyl)phenyl)amino)-1-oxo-3-(pyridin-4-yl)propan-2-yl)-4-fluorobenzamide] | 20 nM
